{
  "source": "patent US9629921B2",
  "about": "“Smart pro-drugs of serine protease inhibitors” (Trustees of Tufts College, priority 2002, dated 2017)",
  "key": {"[1]": {"tested_on": "male Sprague-Dawley rats", "details": "rat, in vivo"}, "[2]": {"molecular_target": "DPP IV (Homo sapiens, UniProt P27487)", "sequence (P27487 whole entry, species assumed)": "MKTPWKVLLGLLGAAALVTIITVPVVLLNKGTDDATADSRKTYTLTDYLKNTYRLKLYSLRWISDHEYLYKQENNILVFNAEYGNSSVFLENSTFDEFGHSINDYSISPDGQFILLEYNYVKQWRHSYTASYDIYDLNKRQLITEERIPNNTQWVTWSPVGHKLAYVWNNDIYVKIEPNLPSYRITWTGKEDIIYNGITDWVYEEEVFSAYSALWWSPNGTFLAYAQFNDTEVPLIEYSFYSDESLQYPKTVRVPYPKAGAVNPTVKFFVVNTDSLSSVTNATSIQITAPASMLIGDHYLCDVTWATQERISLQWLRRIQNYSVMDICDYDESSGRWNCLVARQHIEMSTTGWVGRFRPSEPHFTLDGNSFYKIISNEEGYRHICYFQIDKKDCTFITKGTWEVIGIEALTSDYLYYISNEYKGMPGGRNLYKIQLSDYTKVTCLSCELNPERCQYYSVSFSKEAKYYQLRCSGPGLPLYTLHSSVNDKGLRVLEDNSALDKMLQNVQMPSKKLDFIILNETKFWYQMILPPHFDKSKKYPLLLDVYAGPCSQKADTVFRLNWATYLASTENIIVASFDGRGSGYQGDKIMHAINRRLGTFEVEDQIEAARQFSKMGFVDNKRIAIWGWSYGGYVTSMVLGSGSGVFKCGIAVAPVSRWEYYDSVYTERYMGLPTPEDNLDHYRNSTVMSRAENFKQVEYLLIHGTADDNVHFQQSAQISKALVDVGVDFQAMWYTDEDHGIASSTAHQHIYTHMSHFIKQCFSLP", "assay": "In vitro DPP IV enzyme inhibition assay; inhibitors incubated at pH 2 or pH 8, then added to enzyme assay solution at pH 8.0", "format": "biochemical", "method": "Inhibitors were incubated overnight in pH 2 or pH 8 solutions and then added directly to an enzyme assay solution at pH 8.0.\nIt is important to note that the x-axis in FIG. 3 refers to the concentration of the SPI, not the concentration of the released Xaa-boroPro."}, "[3]": {"tested_on": "male Sprague-Dawley rats", "assay": "Example 10: clinical signs and mortality after single oral administration in male rats;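 as to all read-outs here: test articles given by mouth, formulated in deionized Type I water as vehicle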", "details": "2.5 mg/kg ALA-PRO boronic dose equivalents"}, "[4]": {"tested_on": "DB/DB mice", "assay": "Fasting blood glucose in db/db (diabetic) mice", "format": "in vivo", "method": "A dose of 1.7 mg corresponds to the 0.05 mg/kg dose.\nExendin is in phase 3 clinical trials for the treatment of type 2 diabetes (Amylin). Exendin-4 is widely regarded as the most powerful agent currently know for lowering fasting blood glucose levels and for improving glycemic control in diabetics."}, "[5]": {"molecular_target": "T1, Serum DPP IV (Rattus norvegicus, UniProt P14740)", "T1 construct": "Serum DPP IV activity in rats as a function of time; from tissue; host or cells: rat serum", "T1 sequence (P14740 37-767 limits assumed)": "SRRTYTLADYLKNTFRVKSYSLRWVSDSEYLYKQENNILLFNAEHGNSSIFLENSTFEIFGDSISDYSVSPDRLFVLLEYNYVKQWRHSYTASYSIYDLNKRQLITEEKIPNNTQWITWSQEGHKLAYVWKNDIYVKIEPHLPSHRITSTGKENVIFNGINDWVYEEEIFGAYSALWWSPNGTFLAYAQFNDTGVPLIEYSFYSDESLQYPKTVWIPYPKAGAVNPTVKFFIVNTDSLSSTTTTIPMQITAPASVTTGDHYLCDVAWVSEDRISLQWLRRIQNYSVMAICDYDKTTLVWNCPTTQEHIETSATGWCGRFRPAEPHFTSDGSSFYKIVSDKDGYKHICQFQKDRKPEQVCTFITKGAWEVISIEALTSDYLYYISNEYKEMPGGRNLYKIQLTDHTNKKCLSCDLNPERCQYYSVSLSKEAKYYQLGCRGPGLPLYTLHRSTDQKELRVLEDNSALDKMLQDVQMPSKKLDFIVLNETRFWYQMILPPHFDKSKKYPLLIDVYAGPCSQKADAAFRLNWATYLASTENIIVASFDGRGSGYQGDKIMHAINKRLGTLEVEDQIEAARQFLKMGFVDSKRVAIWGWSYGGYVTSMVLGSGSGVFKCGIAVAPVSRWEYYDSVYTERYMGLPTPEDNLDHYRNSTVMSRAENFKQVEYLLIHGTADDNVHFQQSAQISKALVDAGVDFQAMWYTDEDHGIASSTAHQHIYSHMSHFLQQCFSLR", "assay": "Serum DPP IV activity in rats as a function of time after dosing", "format": "in vivo", "method": "FIG. 8 Serum DPP IV activity in rats as a function of time following a single oral dose of 0.025 mg/kg. Each bar represents the average of four rats.\nEach bar represents the average of four rats."}, "[6]": {"molecular_target": "serum DPP IV (Mus musculus, UniProt P28843)", "sequence (P28843 37-760 limits assumed)": "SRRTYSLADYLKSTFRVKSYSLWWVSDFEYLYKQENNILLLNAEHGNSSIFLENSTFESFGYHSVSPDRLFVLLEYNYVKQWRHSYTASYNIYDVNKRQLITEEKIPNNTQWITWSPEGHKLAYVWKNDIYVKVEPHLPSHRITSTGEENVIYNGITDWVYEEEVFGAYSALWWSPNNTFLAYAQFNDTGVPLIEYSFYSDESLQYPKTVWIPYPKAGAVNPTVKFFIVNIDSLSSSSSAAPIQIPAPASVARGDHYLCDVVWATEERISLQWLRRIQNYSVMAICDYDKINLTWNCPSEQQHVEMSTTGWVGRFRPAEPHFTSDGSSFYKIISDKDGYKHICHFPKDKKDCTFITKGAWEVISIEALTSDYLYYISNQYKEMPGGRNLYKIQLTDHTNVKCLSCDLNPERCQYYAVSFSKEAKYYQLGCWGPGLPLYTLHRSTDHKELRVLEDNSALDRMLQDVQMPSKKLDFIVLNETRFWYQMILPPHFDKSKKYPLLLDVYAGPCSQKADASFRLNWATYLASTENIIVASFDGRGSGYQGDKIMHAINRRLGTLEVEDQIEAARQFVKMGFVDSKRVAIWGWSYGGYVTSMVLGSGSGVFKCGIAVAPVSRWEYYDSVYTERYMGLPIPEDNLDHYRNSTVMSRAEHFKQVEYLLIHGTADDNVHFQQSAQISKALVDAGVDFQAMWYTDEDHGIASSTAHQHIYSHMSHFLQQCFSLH", "assay": "In vivo inhibition of serum DPP IV in db/db mice after oral dose", "details": "for activity at 0.0025 mg/kg / activity at 0.01 mg/kg / activity at 0.025 mg/kg: mouse, iv, Diabetic-control = 100.00; for activity at 0.0025 mg/kg: read-out: In vivo inhibition of serum DPP IV, 0.0025 mg/kg; for activity at 0.01 mg/kg: read-out: In vivo inhibition of serum DPP IV, 0.01 mg/kg; for activity at 0.025 mg/kg: read-out: In vivo inhibition of serum DPP IV, 0.025 mg/kg"}, "[7]": {"tested_on": "Zucker rats", "assay": "Toxicity (mortality) after oral dose in rats", "format": "in vivo", "details": "rats, dose equivalent to 0.35 mg/kg of Val-boroPro (FIG. 6)"}, "[8]": {"tested_on": "DB/DB mice"}, "[9]": {"details": "pH 2, ten minutes, read-out: IC50 Values at Ten Minutes pH 2"}, "[10]": {"details": "pH 8, ten minutes, read-out: IC50 Values at Ten Minutes pH 8"}},
  "note": "pIC50: −log10 of the molar value. Entries after “also recorded” stand apart in the source; their conditions may differ. Like-named read-outs stand apart in the source and are kept apart here.",
  "data": [
    {"compound": "CNCC(=O)N1CC=CC1C(=O)NC(C)C(=O)N1CCCC1B(O)O", "note": "(stereo not drawn) [SarDhpAlaboroPro, N-Me-Gly-3,4 dehydroproline-ALA-PRO Boronic Acid]", "values": [
      {"measurement": "Approximate Time of Sacrifice or Time Animal was Found Dead (hr post-dose)", "setting": "[1]", "value": "~7 h (found dead)"},
      {"measurement": "pIC50", "setting": "[2]; [9]", "value": 7.41},
      {"measurement": "pIC50", "setting": "[2]; [10]", "value": 7.47},
      {"measurement": "Approximate Time of Sacrifice or Time Animal was Found Dead (hr post-dose)", "setting": "[3]", "value": "~4 h (sacrificed)"}
    ]},
    {"compound": "exendin-4: in phase 3 clinical trials for the treatment of type 2 diabetes (Amylin); powerful agent for lowering fasting blood glucose [reference compound]", "values": [
      {"measurement": "Effect in lowering fasting blood glucose as a function of hyperglycemia", "setting": "[4]; FIG. 67", "value": "The greater the hyperglycemia the greater is the effect"}
    ]},
    {"compound": "CC(C)C(NC(=O)C1CCCN1C(=O)C(N)C1CCCCC1)C(=O)N1CCCC1B(O)O", "note": "(stereo not drawn) [ChgProValboroPro, Cyclohexylglycine-Proline-Valine-boroPro line]", "values": [
      {"measurement": "Potency, duration and safety in vivo in rats compared with ValboroPro", "setting": "[5]; rats, each bar average of four animals (FIG. 62)", "value": "more potent, longer acting, and safer than ValboroPro"},
      {"measurement": "Inhibition of serum DPP IV activity compared with Val-boroPro", "setting": "[5]; rats, single oral dose of 0.025 mg/kg, average of four rats (FIG. 8), 0.025 mg/kg", "value": "outperforms Val-boroPro in inhibiting serum DPP IV activity; also recorded: outperforms Val-boroPro in inhibition serum DPP IV enzyme activity"},
      {"measurement": "Oral activity: serum DPP IV activity in rats", "setting": "[5]; three different doses given orally (FIG. 6, 7)", "value": "very orally active; also recorded: orally active"},
      {"measurement": "pIC50", "setting": "[2]; pH 2, read-out: Tetrapeptide Prodrugs (IC50) pH 2", "value": 7.19},
      {"measurement": "pIC50", "setting": "[2]; [9]", "value": 7.15},
      {"measurement": "pIC50", "setting": "[2]; pH 8, read-out: Tetrapeptide Prodrugs (IC50) pH 8", "value": 7.14},
      {"measurement": "pIC50", "setting": "[2]; [10]", "value": 7.15},
      {"measurement": "Lowering fasting blood glucose compared with GLP-1", "setting": "[4]; db/db mice, dose of 1.7 mg corresponds to the 0.05 mg/kg dose (FIG. 65)", "value": "outperforms GLP-1 in lowering fasting blood glucose"},
      {"measurement": "Lowering fasting blood glucose compared with exendin-4", "setting": "[4]; diabetic (db/db) mice (FIG. 66, 67)", "value": "as effective as exendin-4 in lowering fasting blood glucose; also recorded: does about what the highest dose of exendin-4 could be expected to do"},
      {"measurement": "Oral activity in mice compared with Val-boroPro", "setting": "[6]; db/db mice (Table 3)", "value": "outperforms Val-boroPro in mice"},
      {"measurement": "activity at 0.0025 mg/kg", "setting": "[6]; 1 hr Post Rx-Glucose", "value": 84.5, "unit": "%"},
      {"measurement": "activity at 0.0025 mg/kg", "setting": "[6]; 4 hrs Post Rx-Glucose", "value": 81.8, "unit": "%"},
      {"measurement": "activity at 0.01 mg/kg", "setting": "[6]; 1 hr Post Rx-Glucose", "value": 48.9, "unit": "%"},
      {"measurement": "activity at 0.01 mg/kg", "setting": "[6]; 4 hrs Post Rx-Glucose", "value": 40.7, "unit": "%"},
      {"measurement": "activity at 0.025 mg/kg", "setting": "[6]; 1 hr Post Rx-Glucose", "value": 34.7, "unit": "%"},
      {"measurement": "activity at 0.025 mg/kg", "setting": "[6]; 4 hrs Post Rx-Glucose", "value": 24.4, "unit": "%"},
      {"measurement": "Mortality (rats killed)", "setting": "[7]", "value": "one of four"},
      {"measurement": "Glucose excursion following an oral glucose challenge", "setting": "[8]; DB/DB mice, OGTT four hours post oral dose, dose equivalent to 0.05 mg/kg of Val-boroPro (FIG. 9)", "value": "markedly outperforms Val-boroPro in lowering the glucose excursion"},
      {"measurement": "Oral glucose tolerance test performance", "setting": "[8]; db/db mice, single oral dose of 0.05 mg/kg three hours before oral glucose challenge (FIG. 63)", "value": "performs better than ValboroPro"}
    ]}
  ]
}
